Test system: Sprague-Dawley rats
Experiment: Phase 1: specific effects of gacyclidine on the nociceptive threshold in rats (modified Randall-Selitto test)
Assay type: in vivo, rat
Conditions: for analgesic effect per se: 0.1 mg/kg
Protocol: All the experiments are carried out on Sprague-Dawley rats weighing 350-400 g; each experimental phase is carried out according to a similar plan: each experimental phase is carried out on 6 groups of 12 rats including one group of control animals. The test adopted to measure the nociceptive threshold is the Randall-Selitto Test modified according to Kayser et al. (1990) (Kayser V., Basbaum A. I. and Guilbaud G.,
Deafferentation in the rat increase mechanical nociceptive threshold in the innervated limbs; Brain research ([…]), 508, 329-332), using a mechanical stimulus of increasing intensity (expressed in grams), the retained evoked response being the cry of the animal.
The general plan for an experimental phase is as follows: • arrival and housing of the animals: 4 days; • preparation of the animals allowing them to become familiar with the investigator and the experimental conditions and measurements in order to avoid any possibility of measurement bias being induced by stress: 14 days; • preparation and insertion of the catheters: 9 days; • post-operative rest (with antibiotic treatment) and determination of the stability of the experimental measurements (basic nociceptive threshold): 4 days; • testing of response to the different active ingredients: 9 days.
The 3 doses of gacyclidine retained: 0.1, 0.3 and 1 mg/kg, are injected by venous route using the catheter introduced into a jugular vein.
All the results are analyzed according to an ANOVA test.
Phase 1: study of the specific effects of gacyclidine on the nociceptive threshold in rats.
3 series of experiments each including 2 groups of animals of 12 rats are set up. • 1st series of experiments: • 1st group: the animals receive an injection of physiological saline solution. • 2nd group: the animals receive a dose of 0.1 mg/kg of gacyclidine.
2nd series of experiments: • 1st group: the animals receive an injection of physiological saline solution. • 2nd group: the animals receive a dose of 0.3 mg/kg of gacyclidine.
3rd series of experiments: • 1st group: the animals receive an injection of physiological saline solution. • 2nd group: the animals receive a dose of 1 mg/kg of gacyclidine.
All the animals in the 3 series of experiments are prepared during the same phase. The day of administration of the gacyclidine (or of the physiological saline solution) for each series is deferred by only 3 days in order to follow the evolution of the nociceptive threshold for several days following the administration of the pharmaceutical substances. The measurement of the nociceptive threshold is carried out over at least 4 hours after the injection of gacyclidine, at the rate of one measurement every 30 minutes then daily for at least one week.

[1] = gacyclidine alone, 0.1 mg/kg i.v.

For “1-[cis-2-methyl-1-(2-thienyl)cyclohexyl]piperidine [gacyclidine]”, the psychomotor effect (doses of 0.1 and 0.3 mg/kg) was “does not have any psychomotor effect”, the “motor effect per se” value [1] was “neither analgesic effect nor motor effect” and the “analgesic effect per se” value [1] was “neither analgesic effect nor motor effect”. The “analgesic effect per se” value (gacyclidine alone, 0.1 mg/kg i.v., listed as thienylcyclohexylamine) was “does not per se cause any analgesic effect”, the “duration of analgesic effect (nociceptive threshold)” value (gacyclidine alone, 0.3 mg/kg i.v.) was 30 min and the “duration of analgesic effect (nociceptive threshold)” value (gacyclidine alone, 1 mg/kg i.v.) was “first hour”. For the same substance, the motor effects (gacyclidine alone, 1 mg/kg i.v. (strongest dose used)) was “induces motor effects”.
